The test system of series [1] is Plasmodium falciparum. The experiment in a line: NOVARTIS: Inhibition of Plasmodium falciparum W2 (drug-resistant) proliferation in erythrocyte-based infection assay. The conditions noted are these: Plasmodium falciparum, W2; read-out: EC50. Type of series: functional, organism-based.
The nature of series [2]: NOVARTIS: Cytotoxicity against human hepatocellular carcinoma cell line (Huh7). The class given is toxicity, cell-based, Huh-7. The conditions noted are these: Huh7 cells (hepatocellular carcinoma cell line).
Series [3] deals with Plasmodium falciparum. Briefly: NOVARTIS: Inhibition of Plasmodium falciparum 3D7 (drug-susceptible) proliferation in erythrocyte-based infection assay. The class given is functional, organism-based. The following applies: Plasmodium falciparum, 3D7.

SMILES strings stand for the structures.

EC50 and CC50 data for 39 compounds are collected here from ChEMBL document CHEMBL1156829 (Proc Natl Acad Sci U S A, 2008).

For the compound `CCN1/C(=C/c2sc3cc(OC)c(OC)cc3[n+]2CC)C=Cc2ccccc21`, the EC50 (usually the concentration needed to bring the measured effect to its halfway point) with Plasmodium falciparum [1] was found to be 104 nM; with Plasmodium falciparum [3] it was 136 nM. Further, the CC50 (in general, the concentration that lowers cell viability or growth by half) in series [2] was over 10000 nM.
For `CCOC(=O)c1[nH]c2ccccc2c1N=NN(C)C`, in that order: 376 nM, 128 nM and 36100 nM.
`O=C(c1ccc([N+](=O)[O-])o1)N1CCN(c2cccc(Cl)c2)CC1`: the results for the concentration for a half-maximal effect (EC50) with Plasmodium falciparum [1] and with Plasmodium falciparum [3] were 1040 nM and 6330 nM, respectively. The CC50 in series [2] is over 100000 nM.
For `COc1cc(C=NNC(=O)c2ccc(C(=O)NN=Cc3ccc(O)c(OC)c3)cc2)ccc1O`, in that order: 1030 nM, 652 nM and over 100000 nM.
For `COc1nc(NC(=N)N)nc2ccc(C)cc12`, in that order: 608 nM, 880 nM and 58000 nM.
As to `Fc1ccccc1CCNc1ncnc2c1[nH]c1ccccc12`, the EC50 in the series on Plasmodium falciparum [1] was found to be 150 nM; with Plasmodium falciparum [3], 165 nM. The compound also showed a CC50 in series [2] of 14300 nM.
For the compound `CN1CCN(c2nc(NN=Cc3cc(Br)c(O)cc3O)nc(Nc3ccc([N+](=O)[O-])cc3)n2)CC1`, the EC50 in the series on Plasmodium falciparum [1] worked out at 104 nM; with Plasmodium falciparum [3], 321 nM. Besides, in series [2], the CC50 was over 10000 nM.
Take `CCOC(=O)c1c(NC(=O)c2ccc([N+](=O)[O-])cc2[N+](=O)[O-])sc2c1CCCC2`: the values for the EC50 in the series with Plasmodium falciparum [1] and with Plasmodium falciparum [3] were 1040 nM and over 12500 nM, respectively. The compound also came in with a CC50 in series [2] of over 100000 nM.
The corresponding values for `Cc1c(-c2ccc(Cl)cc2)[n+]2c(n1-c1ccccc1)SCCC2` are 1040 nM, 1150 nM and over 100000 nM.
Take `O=C1[C@@H]2Cc3c([nH]c4ccccc34)C(CCc3ccccc3)N2C(=O)CN1CCc1c[nH]c2ccccc12` (some centres not stated): the values for the EC50 with Plasmodium falciparum [1] and in the series on Plasmodium falciparum [3] were 1050 nM and 2810 nM, respectively. Besides, the CC50 in series [2] was over 100000 nM.
For `COc1cc(NC(C)=C2C(=O)c3ccccc3C2=O)c(OC)cc1Cl`, in that order: 1040 nM, 2400 nM and over 100000 nM.
The corresponding values for `CCCCN(CC(=O)Nc1cc(C(C)(C)C)nn1-c1ccc(Cl)cc1)C(=O)c1ccc(OC)cc1` are 52.7 nM, over 1390 nM and 5080 nM.
For `O=C(Nc1ccc(C2=NCCN2)c(Cl)c1)c1cccc(C(=O)Nc2ccc(C3=NCCN3)c(Cl)c2)c1`, in that order: 103 nM, 307 nM and over 10000 nM.
As to `COC(=O)c1cccc(-c2cc(Cl)c3c(c2)CC(CNC(=O)c2c(C)noc2C)O3)c1` (configuration not stated), the EC50 with Plasmodium falciparum [1] came out at 786 nM; in the series with Plasmodium falciparum [3], 881 nM. In series [2], this compound showed a CC50 of 75900 nM.
The corresponding values for `CC(C)(C)CC(C)(C)Nc1c(-c2ccccc2OC(=O)C2CCC2)nc2ccccn12` are 104 nM, 729 nM and over 10000 nM.
The corresponding values for `OC(CCN1CCN(C(c2ccccc2)c2ccccc2)CC1)c1ccccc1` (configuration not stated) are 1030 nM, 4650 nM and over 100000 nM.
For `CN(C)c1nnc(C(C#N)=Cc2cc(C(=O)c3cccc(Cl)c3)cn2C)o1`, in that order: 1030 nM, over 12500 nM and over 100000 nM.
On to `COc1cc(NC(C)CCCN(Cc2ccc(OC)c(OC)c2)C(=O)c2ccccc2)c2ncccc2c1` (configuration not stated), for which the EC50 in the series with Plasmodium falciparum [1] stood at 103 nM; in the series on Plasmodium falciparum [3], 529 nM. In series [2], this compound showed a CC50 of over 10000 nM.
The corresponding values for `Cc1ccnc(Nc2nc(-c3c(C)nc4sccn34)cs2)c1` are 753 nM, 1500 nM and over 73400 nM.
For `CC(CN1CCC(n2cc(C(=O)N3CCCC3)nn2)CC1)c1ccccc1` (configuration not stated), in that order: 1020 nM, 2410 nM and over 100000 nM.
For `Cc1cccc(NS(=O)(=O)c2ccc3[nH]c(=O)ccc3c2)c1C`, in that order: 838 nM, over 12500 nM and 81800 nM.
In the case of `Clc1ccc2c(N3CCC(n4cccc4)CC3)ccnc2c1`, the half-maximal effective concentration (EC50) was 1050 nM in the series on Plasmodium falciparum [1] and 1020 nM with Plasmodium falciparum [3]. In series [2], the CC50 is over 100000 nM.
For `CCN(CC)CCN1C(=O)c2ccccc2NC1c1ccc(C)cc1` (configuration not stated), in that order: 1050 nM, 858 nM and over 100000 nM.
For `Cc1ccc(-c2nc3ncccc3o2)cc1NC(=O)COc1ccc(C(C)(C)C)cc1`, in that order: 1050 nM, 420 nM and over 100000 nM.
The corresponding values for `CCOc1ccc2[nH]c(=O)c(C(c3nnnn3CCOC)N3CCCC3)cc2c1` (configuration not stated) are 1050 nM, over 12500 nM and over 100000 nM.
As for `COc1ccc(OC)c(-c2ccc(O)c(CNCCc3cccc(F)c3)c2)c1`, the EC50 in the series on Plasmodium falciparum [1] is 106 nM; in the series with Plasmodium falciparum [3], 675 nM. In series [2], this compound gave a CC50 of over 10000 nM.
For `COc1ccc(CCN2C(=O)N(CCN(C)C)C(=O)C23CCN(Cc2ccc(O)cc2)CC3)cc1`, in that order: 828 nM, 221 nM and 78500 nM.
For `Cn1nc(C(F)(F)F)c(C(=O)Nc2ccc(Cl)cc2)c1Sc1ccc(Cl)cc1`, in that order: 369 nM, 749 nM and 34800 nM.
`COc1ccc(/C=C2\SC(=Nc3ccccc3OC)NC2=O)cc1`: the EC50 in the series on Plasmodium falciparum [1] came to 106 nM; in the series with Plasmodium falciparum [3], 249 nM. For the same compound, in series [2], the CC50 was over 10000 nM.
For `CCCCCNC(=O)C1CSC(c2ccoc2)N1C(=O)c1ccccc1Cl` (configuration not stated), in that order: 1060 nM, 2320 nM and over 100000 nM.
For `COc1ccc2c(c1)C(C)(CC#N)C(=O)N2C` (configuration not stated), in that order: 1060 nM, 5640 nM and over 100000 nM.
Take `C=CCn1c(COc2ccccc2C)nnc1SCC(=O)O`: the 50% effective concentration (EC50) was 1050 nM in the series on Plasmodium falciparum [1] and over 12500 nM with Plasmodium falciparum [3]. Further, in series [2], the CC50 was over 100000 nM.
`C=C[C@H]1CN2CC[C@H]1C[C@@H]2[C@@H](OC(=O)c1ccco1)c1ccnc2ccccc12`: the EC50 with Plasmodium falciparum [1] stood at 104 nM; in the series on Plasmodium falciparum [3], 149 nM. In addition, in series [2], the CC50 is over 10000 nM.
The corresponding values for `c1cc2cc3c(cc2c2cc4c(cc12)C[N+]1(CCCC1)C4)C[N+]1(CCCC1)C3` are 1060 nM, 645 nM and over 100000 nM.
The corresponding values for `CCOC(=O)N1CCC(NC(=O)c2c(C)nn(-c3cccc(C)c3)c2-n2cccc2)CC1` are 1060 nM, 280 nM and over 100000 nM.
The corresponding values for `COc1ccc(S(=O)(=O)N=C2C=C(Nc3ccccc3)C(=O)c3ccccc32)cc1` are 122 nM, 93.3 nM and 12000 nM.
As for `CC(=O)N(C1=C(N2CCOCC2)C(=O)c2ccccc2C1=O)c1ccc(Br)cc1`, the EC50 came to 200 nM in the series with Plasmodium falciparum [1] and 239 nM with Plasmodium falciparum [3]. In series [2], this compound displayed a CC50 of 19100 nM.
For `CN1CCN(c2nc(Nc3ccc(O)cc3)nc3ccccc23)CC1`, in that order: 443 nM, 626 nM and 41800 nM.
The corresponding values for `CC(C)(C)NCC(O)Cn1c2ccc(I)cc2c2cc(I)ccc21` (configuration not stated) are 64 nM, 608 nM and 6090 nM.
